Laboratory results published in the NIST ThermoML archive (doi:10.1021/je020067x).

Columns and labels:
[1] = 303.15 K, 101.33 kPa, Liquid; for viscosity: Capillary tube (Ostwald / Ubbelohde) method; for mass density: Vibrating tube method
[2] = xn = mol fraction of the nth substance listed; details: 303.15 K, 101.33 kPa, Liquid; for viscosity: Capillary tube (Ostwald / Ubbelohde) method; for mass density: Vibrating tube method

ClCCl [dichloromethane]
[1]
Details | mass density [kg/m3] | viscosity [mPa·s]
– | 1307.6 | 0.3929

ClCCl [dichloromethane] + ClC(Cl)Cl
[2]
Details | mass density [kg/m3] | viscosity [mPa·s]
x1 = 0.0633 | 1462.3 | 0.504
x1 = 0.1191 | 1454.8 | 0.4976
x1 = 0.1924 | 1444.7 | 0.4892
x1 = 0.3101 | 1427.8 | 0.4741
x1 = 0.3607 | 1420.3 | 0.4686
x1 = 0.4299 | 1409.7 | 0.4602
x1 = 0.5221 | 1395.1 | 0.4501
x1 = 0.6464 | 1374.3 | 0.4352
x1 = 0.6833 | 1367.8 | 0.4301
x1 = 0.74 | 1357.8 | 0.4236
x1 = 0.7979 | 1347.1 | 0.4163
x1 = 0.8681 | 1333.9 | 0.4083
x1 = 0.9034 | 1327 | 0.404
x1 = 0.9358 | 1320.6 | 0.4005

ClC(Cl)(Cl)Cl [tetrachloromethane]
[1]
Details | mass density [kg/m3] | viscosity [mPa·s]
– | 1575 | 0.8403

ClC(Cl)(Cl)Cl [tetrachloromethane] + ClC(Cl)Cl
[2]
Details | mass density [kg/m3] | viscosity [mPa·s]
x1 = 0.0591 | 1477.2 | 0.5216
x1 = 0.075 | 1479 | 0.5248
x1 = 0.1297 | 1485.1 | 0.5343
x1 = 0.2236 | 1495.3 | 0.5538
x1 = 0.2777 | 1501.2 | 0.5658
x1 = 0.3416 | 1508.1 | 0.5811
x1 = 0.434 | 1517.9 | 0.6041
x1 = 0.4886 | 1523.6 | 0.6201
x1 = 0.5736 | 1532.5 | 0.6486
x1 = 0.6646 | 1541.8 | 0.6807
x1 = 0.7747 | 1552.9 | 0.7256
x1 = 0.8186 | 1557.3 | 0.7458
x1 = 0.8904 | 1564.4 | 0.7804
x1 = 0.9305 | 1568.3 | 0.8017

ClC(Cl)(Cl)Cl [tetrachloromethane] + ClCCl
[2]
Details | mass density [kg/m3] | viscosity [mPa·s]
x1 = 0.0375 | 1321.5 | 0.4008
x1 = 0.0622 | 1330.4 | 0.4061
x1 = 0.0791 | 1336.4 | 0.4097
x1 = 0.0889 | 1339.9 | 0.412
x1 = 0.1254 | 1352.4 | 0.421
x1 = 0.2047 | 1378.4 | 0.441
x1 = 0.2305 | 1386.5 | 0.4479
x1 = 0.297 | 1406.7 | 0.4669
x1 = 0.3695 | 1427.7 | 0.4897
x1 = 0.4985 | 1462.5 | 0.5369
x1 = 0.4986 | 1462.5 | 0.5374
x1 = 0.4997 | 1462.8 | 0.5375
x1 = 0.5631 | 1478.9 | 0.564
x1 = 0.609 | 1490.1 | 0.5853
x1 = 0.6845 | 1508 | 0.6223
x1 = 0.8006 | 1533.9 | 0.6894
x1 = 0.8032 | 1534.5 | 0.6915
x1 = 0.8652 | 1547.7 | 0.7331
x1 = 0.9279 | 1560.7 | 0.7792
x1 = 0.9677 | 1568.6 | 0.8116

ClC(Cl)Cl [trichloromethane]
[1]
Details | mass density [kg/m3] | viscosity [mPa·s]
– | 1470.5 | 0.5118
